{
  "source": "patent US12612417B2",
  "about": "“Deuterated analogues of selenophenochromenes, synthesis thereof, and methods of using same agents” (Latvian Institute of Organic Synthesis, priority 2019, dated 2026)",
  "key": {"[1]": {"tested_on": "A549 (human lung carcinoma)", "test": "In vitro cytotoxicity (MTT) on A549", "assay_type": "cell-based", "settings": "48 h", "description": "(§1) Anticancer activity of deuterated selenopheno[h]chromenes was tested in vitro using cytotoxicity assay. Thus, monolayer tumor cell lines MDA-MB-435s (human melanoma), MCF-7 (human breast adenocarcinoma, estrogen-positive), MES-SA (human uterus sarcoma), HT-1080 (human fibrosarcoma), A549 (human lung carcinoma), GM08402 (human fibroblast, apparently healthy), 3T3 (mouse embryo fibroblasts), H9C2 (rat cardiomyocytes) were cultured in standard medium DMEM (Dulbecco's modified Eagle's medium) (“Sigma”) supplemented with 10% heat-inactivated fetal bovine serum (“Sigma”). The cell viability was assessed by addition of 3-(4,5-dimethylthiazol-2-yl)-2,5-diphenyltetrazolinium bromide (MTT). Briefly, cells were seeded (2−6×10^4 cells/ml) in 96-well plates and allowed to attach for 24 h.\n(§2) Tested compound solutions were prepared and serially diluted to obtain appropriate concentrations. Cells were treated with different concentrations (0.032-100 μM) and incubated for 48 h at 37° C., 5% CO2 Then the culture medium was removed and medium containing 0.2 mg/ml MTT was added. After 3 h (37° C., 5% CO2), the MTT-containing medium was removed, and 200 μl of dimethyl sulfoxide (DMSO) was immediately added to each sample. The absorbance was assessed at 540 nm on a Tecan multiplate reader Infinite 1000 (Austria). The half-maximal inhibitory concentration (IC50) of each compound was calculated using Graph Pad Prism® 3.0."}, "MDA-MB-231": {"tested_on": "MDA-MB-231", "test": "In vitro cytotoxicity (MTT) on MDA-MB-231", "assay_type": "cell-based, human", "settings": "MDA-MB-231, MTT, 48 h"}, "[2]": {"test": "In vitro cytotoxicity (MTT) on 3T3", "assay_type": "cell-based, mouse", "settings": "mouse, 3T3 embryo fibroblasts, 3T3, MTT", "description": "as §1, §2"}, "[3]": {"test": "In vitro cytotoxicity (MTT) on H9C2", "assay_type": "cell-based, rat", "settings": "rat, H9C2 cardiomyocytes", "description": "as §1, §2"}, "[4]": {"tested_on": "MCF-7 (human breast adenocarcinoma, estrogen-positive)", "test": "In vitro cytotoxicity (MTT) on MCF-7", "assay_type": "cell-based", "settings": "MCF-7, MTT, 48 h", "description": "as §1, §2"}, "[5]": {"test": "In vitro cytotoxicity (MTT) on GM08402", "assay_type": "cell-based, human", "settings": "human, GM08402 fibroblasts", "description": "as §1, §2"}, "[6]": {"tested_on": "MES-SA (human uterus sarcoma)", "test": "In vitro cytotoxicity (MTT) on MES-SA", "assay_type": "cell-based", "settings": "48 h", "description": "as §1, §2"}, "[7]": {"tested_on": "HT-1080 (human fibrosarcoma)", "test": "In vitro cytotoxicity (MTT) on HT-1080", "assay_type": "cell-based", "settings": "HT-1080, MTT, 48 h", "description": "as §1, §2"}, "[8]": {"test": "Metabolic stability in vitro, lysate of human hepatoma cells HepG2", "assay_type": "in vitro ADME", "settings": "37° C.", "description": "Assay: the human hepatoma cells HepG2 (ATCC HB-8065) were grown in Eagle's Minimum Essential Medium supplemented with 10% fetal calf serum. The cells were harvested at 80% confluence. The hepatocytes were scraped, two time washed in Hank's Balanced Salt Solution (HBSS) buffer pH-7.4 and suspended in homogenization buffer composed of 10 mM Tris-HCl, 10 mM KCl, 0.15 mM MgCl2 pH 6.7. The cells were homogenized on ice by homogenizer LabGEN7 (Cole Palmer) at 5000 rpm 15 sec. Homogenized cells in HBSS with compound (protein concentration is 95 μg/ml) incubate 37° C. After 10, 30, 60, 120, 180, and 240 min collect 1 ml sample and add 0.1 ml 40% TCA, then centrifugation at 1200 g for 10 min. Supernatant collected and analyzed.\nResults: The stability of deuterated selenopheno[h]chromenes I-1-I-3 compared with non-deuterated analogue methyl 7-bromo-8-((4-methylpiperazin-1-yl)methyl)-2-oxo-2H-selenopheno[3,2-h]chromene-3-carboxylate dihydrochloride (I-0) was tested in vitro using lysate of human hepatoma cells HepG2. The results are presented in FIG. 1 (x-axis—minutes of incubation, y-axis—percent of remained ester)."}, "[9]": {"tested_on": "3T3 (mouse embryo fibroblasts)", "test": "In vitro cytotoxicity (MTT) on 3T3", "assay_type": "cell-based", "settings": "3T3, MTT, 48 h", "description": "as §1, §2"}, "[10]": {"tested_on": "H9C2 (rat cardiomyocytes)", "test": "In vitro cytotoxicity (MTT) on H9C2", "assay_type": "cell-based", "settings": "48 h", "description": "as §1, §2"}, "[11]": {"tested_on": "GM08402 (human fibroblast, apparently healthy)", "test": "In vitro cytotoxicity (MTT) on GM08402", "assay_type": "cell-based", "settings": "48 h", "description": "as §1, §2"}},
  "note": "Structures can show the parent of a compound that is named as a salt.",
  "data": [
    {"molecule": "COC(=O)c1cc2ccc3c(Br)c(CN4CCN(C)CC4)[se]c3c2oc1=O", "note": "[Compound I-0, methyl 7-bromo-8-((4-methylpiperazin-1-yl)methyl)-2-oxo-2H-selenopheno[3,2-h]chromene-3-carboxylate dihydrochloride, reference compound]", "values": [
      {"measurement": "IC50", "setting": "[1]; Homo sapiens", "value": "> 100", "unit": "µM"},
      {"measurement": "IC50", "setting": "MDA-MB-231; Homo sapiens", "value": "95 ± 4", "unit": "µM"},
      {"measurement": "IC50 at 48 h", "setting": "[2]", "value": "100 ± 5", "unit": "µM"},
      {"measurement": "IC50 at 48 h", "setting": "[3]", "value": "92 ± 12", "unit": "µM"},
      {"measurement": "IC50", "setting": "[4]; Homo sapiens, MCF7", "value": "54 ± 6", "unit": "µM"},
      {"measurement": "IC50 at 48 h", "setting": "[5]", "value": "77 ± 16", "unit": "µM"},
      {"measurement": "IC50", "setting": "[6]; Homo sapiens", "value": "56 ± 1", "unit": "µM"},
      {"measurement": "IC50", "setting": "[7]; Homo sapiens", "value": "58 ± 5", "unit": "µM"}
    ]},
    {"molecule": "Butyl-d9 7-bromo-8-((4-methylpiperazin-1-yl)methyl)-2-oxo-2H-selenopheno[3,2-h]chromene-3-carboxylate dihydrochloride [Compound I-3]", "values": [
      {"measurement": "percent of remained ester", "setting": "[8]; after 240 minutes of incubation", "value": 24, "unit": "%"},
      {"measurement": "stability to hydrolysis (in words)", "setting": "[8]; incubation up to 240 min, FIG. 1", "value": "highest stability to hydrolysis"},
      {"measurement": "IC50", "setting": "[1]", "value": "40 ± 13", "unit": "µM"},
      {"measurement": "IC50", "setting": "MDA-MB-231", "value": "35 ± 8", "unit": "µM"},
      {"measurement": "IC50", "setting": "[9]", "value": "34 ± 7", "unit": "µM"},
      {"measurement": "IC50", "setting": "[10]", "value": "30 ± 4", "unit": "µM"},
      {"measurement": "IC50", "setting": "[4]", "value": "70 ± 3", "unit": "µM"},
      {"measurement": "IC50", "setting": "[11]", "value": "62 ± 3", "unit": "µM"},
      {"measurement": "IC50", "setting": "[6]", "value": "29 ± 3", "unit": "µM"},
      {"measurement": "IC50", "setting": "[7]", "value": "31 ± 3", "unit": "µM"}
    ]},
    {"molecule": "[2H]C([2H])([2H])OC(=O)c1cc2ccc3c(Br)c(CN4CCN(C)CC4)[se]c3c2oc1=O", "note": "[Compound I-1, Methyl-d3 7-bromo-8-((4-methylpiperazin-1-yl)methyl)-2-oxo-2H-selenopheno[3,2-h]chromene-3-carboxylate dihydrochloride]", "values": [
      {"measurement": "IC50", "setting": "[1]; Homo sapiens", "value": "105 ± 7", "unit": "µM"},
      {"measurement": "IC50", "setting": "MDA-MB-231; Homo sapiens", "value": "84 ± 13", "unit": "µM"},
      {"measurement": "IC50 at 48 h", "setting": "[2]", "value": "66 ± 11", "unit": "µM"},
      {"measurement": "IC50 at 48 h", "setting": "[3]", "value": "82 ± 14", "unit": "µM"},
      {"measurement": "IC50", "setting": "[4]; Homo sapiens, MCF7", "value": "82 ± 5", "unit": "µM"},
      {"measurement": "IC50 at 48 h", "setting": "[5]", "value": "89 ± 16", "unit": "µM"},
      {"measurement": "IC50", "setting": "[6]; Homo sapiens", "value": "40 ± 7", "unit": "µM"},
      {"measurement": "IC50", "setting": "[7]; Homo sapiens", "value": "70 ± 6", "unit": "µM"}
    ]},
    {"molecule": "Cl.Cl.[2H]C([2H])([2H])C([2H])([2H])OC(=O)c1cc2ccc3c(Br)c(CN4CCN(C)CC4)[se]c3c2oc1=O", "note": "[Compound I-2, Ethyl-d5 7-bromo-8-((4-methylpiperazin-1-yl)methyl)-2-oxo-2H-selenopheno[3,2-h]chromene-3-carboxylate dihydrochloride]", "values": [
      {"measurement": "IC50", "setting": "[1]; Homo sapiens", "value": "> 100", "unit": "µM"},
      {"measurement": "IC50", "setting": "MDA-MB-231; Homo sapiens", "value": "90 ± 15", "unit": "µM"},
      {"measurement": "IC50 at 48 h", "setting": "[2]", "value": "64 ± 9", "unit": "µM"},
      {"measurement": "IC50 at 48 h", "setting": "[3]", "value": "73 ± 4", "unit": "µM"},
      {"measurement": "IC50", "setting": "[4]; Homo sapiens, MCF7", "value": "46 ± 4", "unit": "µM"},
      {"measurement": "IC50 at 48 h", "setting": "[5]", "value": "94 ± 8", "unit": "µM"},
      {"measurement": "IC50", "setting": "[6]; Homo sapiens", "value": "56 ± 15", "unit": "µM"},
      {"measurement": "IC50", "setting": "[7]; Homo sapiens", "value": "59 ± 6", "unit": "µM"}
    ]}
  ]
}
